Results: US20120165325A1, “Stable forms of N-(2,6-Dimethyl-4-morpholin-4-yl-phenyl)-3,3-dimethyl-butyramide” (H. Lundbeck A/S, priority 2009, published 2012)
Values belong to the compound of their own block, whether it stands above or below them.

Key:
Male NMRI mice [1] = assay: Amphetamine sensitisation: inhibition of the sensitised behavioural response to amphetamine; type: in vivo, mouse; conditions: amphetamine-pretreated mice, s.c. 30 min before D-amphetamine challenge 1.25 mg/kg s.c., 30 min test, S.D. in brackets
Experimental: Subjects. […] The animals were housed 6 mice pr cage in a 12-hr light/dark cycle under controlled conditions for regular in-door temperature (21±2° C.) and humidity (55±5%) with food and tap water available ad libitum.
Experimental procedure. […] 5×8 infrared light sources and photocells interspaced by 4 cm monitor the locomotor activity.
Administration of compounds.
Data analyses. […] A therapeutic index value can subsequently be calculated by dividing the first ED50 by the second.

Male NMRI mice [2] = assay: Forced swim test; type: in vivo, mouse; conditions: 30 min before test, last 3 min of 6 min swim, vehicle = 100
Experimental: (§1) Subjects. Male NMRI mice (Charles River) weighing 23-25 g were used. The mice were kept 8 mice pr cage in a 12-hr light/dark cycle under controlled conditions for regular in-door temperature (21±2° C.) and humidity (55±5%) with food and tap water available ad libitum. 8 mice were used pr experimental group.
Experimental procedure. The mice were placed in 2000 ml beaker containing 1200 ml of tempered water (25° C.) and left to swim for 6 min. The performance of the mice was video recorded, digitalized and analysed by means of a digital analysis system (Bioobserve). The time spent immobile for the last 3 min. of the test session was quantified for each mouse.
Treatment. 30 min. before the test, mice were treated s.c. with N-(2,6-dimethyl-4-morpholin-4-yl-phenyl)-3,3-dimethyl-butyramide or vehicle (10-%-2-OH-propyl-cyclodextrin, 10 ml/kg). In addition as positive control, imipramine-HCl (40 mg/kg) and a saline control (10 ml/kg) was included.
Analyses. The time spent immobile was statistically compared across the experimental groups against the relevant control group by means of one-way analysis of variance. A post-hoc test (Student-Newman-Keuls) was employed when appropriate. P-levels <0.05 were considered significant.

Male Wistar rats [3] = assay: Amphetamine challenge: antagonism of d-amphetamine induced hyperactivity; type: in vivo; conditions: rat; s.c. 30 min before d-amphetamine sulphate 0.5 mg/kg; motility over 2 hours; std. dev. in brackets
Experimental: Subjects. Male Wistar rats (Taconic, Denmark) weighing 170-240 g are used. The animals were housed under a 12-hr light/dark cycle under controlled conditions for regular in-door temperature (21±2° C.) and humidity (55±5%) with food and tap water available ad libitum. Eight rats were used at each dose level and in the parallel control group receiving the vehicle to the test compound plus d-amphetamine and the group receiving vehicle injections only.
Experimental procedure. The experiment was made in normal light conditions in an undisturbed room. The test substance was injected 30 min before s.c. before the injection of d-amphetamine sulphate (0.5 mg/kg). Immediately after injection of d-amphetamine, the rats were placed individually in the test cages that were placed in a U-frame, equipped with 4 infrared light sources and photocells. The light beams crossed the cage 4 cm above the cage floor. Recording of a motility count required interruption of adjacent light beams, thus avoiding counts induced by stationary movements of the rat. Motility (counts) was recorded for a period of 2 hours. The mean motility induced by vehicle (saline) treatment in the absence of d-amphetamine was used as baseline. The 100 percent effect of d-amphetamine was accordingly calculated to be total motility counts minus baseline. The response in groups receiving test compound was thus determined by the total motility counts minus baseline, expressed in percent of the similar result recorded in the parallel amphetamine control group. The percent responses were converted to percent inhibition from which ED50 values were calculated by means of log-probit analyses. In a parallel set of data, the potential sedative properties (motility inhibition) of the test compounds were evaluated using essentially the same procedure with the exception of not administering d-amphetamine-sulphate at the initiation of locomotor assessment.

[4] = Solid form stability at 60° C. and 95% relative humidity; type: physicochemical; conditions: relative humidity of 95%
[5] = Intrinsic dissolution rate (37C); type: physicochemical
Male Wistar rats [6] = assay: Motility inhibition (potential sedative properties, without d-amphetamine); type: in vivo; conditions: rat, std. dev. in brackets
Text: Subjects. Male Wistar rats (Taconic, Denmark) weighing 170-240 g are used.
Experimental procedure. […] Recording of a motility count required interruption of adjacent light beams, thus avoiding counts induced by stationary movements of the rat.

Male NMRI mice [7] = assay: Inhibition of baseline motility in vehicle-pretreated, vehicle-challenged mice; type: in vivo, mouse; conditions: 30 min test
Experimental: as §1, with “weighing approx. 35” for “weighing 23-25”, “The animals” for “The mice”, “were housed 6” for “were kept 8”, “libitum. 12” for “libitum. 8”
Experimental procedure. All mice were pre-treated once daily for five days with either d-amphetamine sulphate (2.5 mg/kg s.c.) or saline (10 ml/kg). For the 17 days between the last day of pre-treatment and the test day, the animals were kept in their home cage receiving the standard care as described above. […] The recording of a motility counted requires interruption of adjacent light beams, thereby avoiding counts induced by stationary movements of the mice. […]
Data analyses. […] That is, the response in amphetamine-sensitized groups receiving test compound was thus determined as the sensitised response minus the baseline motility, expressed in percent of the similar result recorded in the sensitized amphetamine response group. […] Similarly, an ED50 for inhibiting baseline motility was calculated by expressed the motility response in vehicle-pretreated, vehicle-challenged, drug-treated animals relative to the baseline motility response. A therapeutic index value can subsequently be calculated by dividing the first ED50 by the second.

Compound: Cc1cc2c(s1)Nc1ccccc1N=C2N1CCN(C)CC1 [Olanzapine, reference compound]
ED50 (Male NMRI mice [1]; Mus musculus): 0.11 mg/kg
Immobility in % (±S.D.) (Male NMRI mice [2]; dose 0.31 mg/kg): 96%
Immobility in % (±S.D.) (Male NMRI mice [2]; dose 1.3 mg/kg): 95%
ED50 (Male Wistar rats [3]): 0.21 mg/kg

Stability: solid form stable for ([4]; listed as α): Solid form stable for >90 days at 60 °C
Intrinsic dissolution rate (37C) ([5]; listed as α): 0.021 mg//cm^2/min
Compound: Cc1cc(N2CCOCC2)cc(C)c1NC(=O)CC(C)(C)C [α form, N-(2,6-Dimethyl-4-morpholin-4-yl-phenyl)-3,3-dimethyl-butyramide, α form]

Stability: solid form stable for ([4]; listed as β): Solid form stable for >90 days at 60 °C
Intrinsic dissolution rate (37C) ([5]; listed as β): 0.026 mg//cm^2/min
Compound: Cc1cc(N2CCOCC2)cc(C)c1NC(=O)CC(C)(C)C [β form, N-(2,6-Dimethyl-4-morpholin-4-yl-phenyl)-3,3-dimethyl-butyramide, β form]

Stability: solid form stable for ([4]; listed as γ): Solid form stable for >14 days at 60 °C
Intrinsic dissolution rate (37C) ([5]; listed as γ): 0.036 mg//cm^2/min
Compound: Cc1cc(N2CCOCC2)cc(C)c1NC(=O)CC(C)(C)C [γ form, N-[2,6-Dimethyl-4-morpholin-4-yl-phenyl]-3,3-dimethyl-butyramide, γ form]

Compound: Lithium-chloride
Motility inhibition ED50 ± std. dev. (Male Wistar rats [6]): >40 mg/kg
Inhibition of baseline motility. ED50 (±S.D.) (Male NMRI mice [7]): >>40 mg/kg
Inhibition of amphetamine sensitised response. ED50 (±S.D.) (Male NMRI mice [1]): 34 (7.2) mg/kg
Amphetamine antagonism ED50 ± std. dev. (Male Wistar rats [3]): 12 (1.7) mg/kg
